For this assay, the target named is T1, TRAP1 enzyme (Homo sapiens, UniProt Q12931).
T1 sequence (Q12931 60-704): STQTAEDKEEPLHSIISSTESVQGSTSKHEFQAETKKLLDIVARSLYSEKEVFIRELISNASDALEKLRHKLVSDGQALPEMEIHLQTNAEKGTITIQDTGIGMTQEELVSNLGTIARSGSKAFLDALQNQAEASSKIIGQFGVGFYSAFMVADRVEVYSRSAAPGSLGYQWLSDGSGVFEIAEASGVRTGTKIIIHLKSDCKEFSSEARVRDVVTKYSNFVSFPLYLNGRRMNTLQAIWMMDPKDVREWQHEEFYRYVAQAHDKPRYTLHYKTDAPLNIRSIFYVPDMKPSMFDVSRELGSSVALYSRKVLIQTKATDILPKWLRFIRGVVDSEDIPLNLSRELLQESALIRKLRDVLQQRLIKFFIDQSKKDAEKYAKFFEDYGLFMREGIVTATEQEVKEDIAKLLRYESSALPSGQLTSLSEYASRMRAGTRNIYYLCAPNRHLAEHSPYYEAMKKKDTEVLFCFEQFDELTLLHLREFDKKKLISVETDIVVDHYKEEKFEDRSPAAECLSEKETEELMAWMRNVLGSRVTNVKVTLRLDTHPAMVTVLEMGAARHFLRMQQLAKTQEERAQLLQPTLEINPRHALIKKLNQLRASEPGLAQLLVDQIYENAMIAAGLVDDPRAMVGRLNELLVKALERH
Briefly: ADP Glo assay of TRAP1 ATPase activity. Type of assay: biochemical. The following applies: for EC50: TRAP1 ATPase activation, 150 nM Trap1, 20 μM ATP, geometric mean, read-out: ADP GLO DRC: GeoMean EC50; for Emax: read-out: ADP GLO DRC: Mean Emax. In a few lines:
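150 nM TRAP1 preincubated with compound (0.79–100 μM) 30 min at 37° C in Pipes pH 7.5 buffer (0.05 mM MgCl2, 40 mM KCl), then 20 μM ATP added for 60 min at 37° C. ADP quantified by ADP-Glo luminescence against ATP/ADP standard curve. Emax and EC50 from sigmoidal fit.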

Here are results for 22 compounds from patent US20230174523A1, “BENZENESULFONAMIDE DERIVATIVES AS TRAP1 MODULATORS AND USES THEREOF” (Amathus Therapeutics, Inc., priority 2020, published 2023).

Each structure is given as a SMILES string.

One may read the EC50 as the concentration giving half of the maximal effect. What is called Emax is the size of the effect at its maximum, as opposed to the concentration needed.

Regarding `COc1ccc(NC(=O)c2cccc(-c3cnccn3)c2)cc1S(=O)(=O)Nc1c(C)cccc1C` [Compound 1222], the EC50 fell in the range of 10 to 20 µM and the Emax fell in the range of 200 to 300%.

As for `COc1ccc(NC(=O)c2cccc3cnccc23)cc1S(=O)(=O)Nc1c(C)cccc1C` [Compound 1224], the EC50 is 20 to 100 µM and the Emax was 160 to 199%.

As for `COc1ccc(NC(=O)c2cccc(-c3cccnc3)c2)cc1S(=O)(=O)Nc1c(C)cccc1C` [Compound 1225], the EC50 is under 10 µM and the maximal effect (Emax) lay in the range of 200 to 300%.

With `COc1ccc(NC(=O)c2cc(C)nc3onc(C)c23)cc1S(=O)(=O)Nc1c(C)cccc1C` [Compound 1226], the EC50 lay within 20 to 100 µM and the Emax was 123 to 159%.

As for `COc1ccc(NC(=O)c2cccc3ncsc23)cc1S(=O)(=O)Nc1c(C)cccc1C` [Compound 1227], the EC50 was in the range of 10 to 20 µM and the Emax is 200 to 300%.

Turning to `COc1ccc(NC(=O)c2ccc3c(c2)ncn3C)cc1S(=O)(=O)Nc1c(C)cccc1C` [Compound 1228], the EC50 fell in the range of 20 to 100 µM and the maximum response (Emax) was in the range of 123 to 159%.

Turning to `COc1ccc(NC(=O)c2cc(-c3ccccc3)no2)cc1S(=O)(=O)Nc1c(C)cccc1C` [Compound 1229], the 50% effective concentration (EC50) is under 10 µM and the Emax was in the range of 160 to 199%.

As for `COc1ccc(NC(=O)c2ccc3nc(C)sc3c2)cc1S(=O)(=O)Nc1c(C)cccc1C` [Compound 1231], the EC50 lay within 10 to 20 µM and the Emax is over 300%.

For the compound `COc1ccc(NC(=O)c2cccc(-n3ccnc3)c2)cc1S(=O)(=O)Nc1c(C)cccc1C` [Compound 1232], the concentration for a half-maximal effect (EC50) was in the range of 10 to 20 µM and the Emax is 200 to 300%.

Turning to `COc1ccc(NC(=O)c2ccc3ncsc3c2)cc1S(=O)(=O)Nc1c(C)cccc1C` [Compound 1233], the half-maximal effective concentration (EC50) fell in the range of 10 to 20 µM and the maximal response (Emax) fell in the range of 160 to 199%.

As to `COc1ccc(NC(=O)c2ccccc2Oc2ccccc2)cc1S(=O)(=O)Nc1c(C)cccc1C` [Compound 1234], the EC50 is under 10 µM and the maximal response (Emax) is 160 to 199%.

For the compound `COc1ccc(NC(=O)c2n[nH]c3c2CCCC3)cc1S(=O)(=O)Nc1c(C)cccc1C` [Compound 1235], the EC50 fell in the range of 10 to 20 µM and the Emax was 200 to 300%.

Regarding `COc1ccc(NC(=O)c2ccc3ncoc3c2)cc1S(=O)(=O)Nc1c(C)cccc1C` [Compound 1236], the EC50 was 20 to 100 µM and the maximal effect (Emax) is 123 to 159%.

Turning to `COc1ccc(NC(=O)c2ccc(Cn3cc(Cl)cn3)cc2)cc1S(=O)(=O)Nc1c(C)cccc1C` [Compound 1237], the 50% effective concentration (EC50) was under 10 µM and the Emax lay within 160 to 199%.

With `COc1ccc(NC(=O)c2ccc3ncn(C)c3c2)cc1S(=O)(=O)Nc1c(C)cccc1C` [Compound 1238], the 50% effective concentration (EC50) fell in the range of 20 to 100 µM and the Emax was 123 to 159%.

Regarding `COc1ccc(NC(=O)c2ccc3nsnc3c2)cc1S(=O)(=O)Nc1c(C)cccc1C` [Compound 1240], the EC50 lay in the range of 10 to 20 µM and the maximal effect (Emax) lay in the range of 200 to 300%.

For `COc1ccc(NC(=O)c2ccc3ncccc3c2)cc1S(=O)(=O)Nc1c(C)cccc1C` [Compound 1241], the EC50 was in the range of 10 to 20 µM and the maximum response (Emax) lay in the range of 200 to 300%.

As to `COc1ccc(NC(=O)c2cccc(-c3ccnn3C)c2)cc1S(=O)(=O)Nc1c(C)cccc1C` [Compound 1242], the EC50 was under 10 µM and the Emax is over 300%.

For `COc1ccc(NC(=O)c2cccc(-c3noc(C)n3)c2)cc1S(=O)(=O)Nc1c(C)cccc1C` [Compound 1243], the EC50 was under 10 µM and the Emax lay within 200 to 300%.

Take `COc1ccc(NC(=O)c2c(C)noc2-c2ccccc2)cc1S(=O)(=O)Nc1c(C)cccc1C` [Compound 1244]: the concentration for a half-maximal effect (EC50) lay in the range of 10 to 20 µM and the maximal effect (Emax) is 123 to 159%.

Consider `COc1ccc(NC(=O)c2cccc(-c3cncnc3)c2)cc1S(=O)(=O)Nc1c(C)cccc1C` [Compound 1248], for which the concentration giving a half-maximal response (EC50) was 20 to 100 µM and the Emax fell in the range of 160 to 199%.

For the compound `COc1ccc(NC(=O)c2cccc(-n3nc(C)cc3C)c2)cc1S(=O)(=O)Nc1c(C)cccc1C` [Compound 1249], the EC50 is 10 to 20 µM and the maximal effect (Emax) is 160 to 199%.
